The nature of data set [1]: solubility in water containing 2% ascorbic acid (solution A) and in water containing 2% ascorbic acid and 10% propylene glycol (solution B), with pH of the resulting solutions. Format: physicochemical. As to the method: The compounds of the present invention show a marked solubility in water as well as in mixtures of water with other pharmaceutically acceptable solvents miscible with water. In particular, the solubility of the compounds of the present invention in comparison with rifampicin was assayed in water containing 2% ascorbic acid (solution A) and in water containing 2% ascorbic acid and 10% propylene glycol (solution B) and the pH of the resulting solutions was recorded.

Data set [2] deals with Staphylococcus aureus Tour. Briefly: antibacterial activity in mice infected with Staphylococcus aureus Tour. Format: in vivo. The note with it: sc, values in parentheses as printed, read-out: ED50 against S. aureus Tour. Here is the method: As expected, this slight delay in hydrolysis in vivo reflects in a median effective dose (ED50) for the compounds of formula I somewhat higher than for rifampicin. In particular the antibacterial activity of the compounds of the present invention was tested in mice infected with Staphylococcus aureus Tour.

For data set [3] the following is noted: cited from earlier work.
Where [4] appears, read: solution A: water containing 2% ascorbic acid.
The mark [5] stands for this setting: water with 2% ascorbic acid, solution A: water containing 2% ascorbic acid, read-out: solubility.

Converted amounts (≈) assume the structure as drawn. Like-named read-outs stand apart in the source and are kept apart here. A value given as a limit tells only on which side of the number the result lay.

Consider `CO[C@H]1/C=C/O[C@@]2(C)Oc3c(C)c(OC(C)=O)c4c(O)c(c(/C=N/N5CCN(C)CC5)c(O)c4c3C2=O)NC(=O)/C(C)=C\C=C\[C@H](C)[C@H](O)[C@@H](C)[C@@H](O)[C@@H](C)[C@H](OC(C)=O)[C@@H]1C` [Example 4, 3-[[(4-methyl-1-piperazinyl)imino]methyl]rifamycin 8-acetate], for which the solubility turned out to be 150 mg/mL (≈ 173 mM) in data set [1] (organic solvent or mixture, solution B: water containing 2% ascorbic acid and 10% propylene glycol, read-out: solubility); 100 mg/mL (≈ 116 mM) in data set [1] (setting [5]). Also, the “pH of the resulting solution” value turned out to be 4.0 in data set [1] (setting [4]); 4.2 in data set [1] (solution B: water containing 2% ascorbic acid and 10% propylene glycol). In data set [2], the 50% effective dose (ED50) was found to be 0.35 mg/kg.

As for `CCC(=O)Oc1c(C)c2c3c4c(O)c(/C=N/N5CCN(C)CC5)c(c(O)c14)NC(=O)/C(C)=C\C=C\[C@H](C)[C@H](O)[C@@H](C)[C@@H](O)[C@@H](C)[C@H](OC(C)=O)[C@H](C)[C@@H](OC)/C=C/O[C@@](C)(O2)C3=O` [Example 5, 3-[[(4-methyl-1-piperazinyl)imino]methyl]rifamycin 8-pro-panoate], the ED50 in data set [2] was found to be 1.2 mg/kg.

`CCOC(=O)Oc1c(C)c2c3c4c(O)c(/C=N/N5CCN(C)CC5)c(c(O)c14)NC(=O)/C(C)=C\C=C\[C@H](C)[C@H](O)[C@@H](C)[C@@H](O)[C@@H](C)[C@H](OC(C)=O)[C@H](C)[C@@H](OC)/C=C/O[C@@](C)(O2)C3=O` [Example 6, 3-[[(4-methyl-1-piperazinyl)imino]methyl]rifamycin 8-ethylcarbonate]: the ED50 in data set [2] worked out at 0.76 mg/kg.

`CO[C@H]1/C=C/O[C@@]2(C)Oc3c(C)c(OC(C)=O)c4c(O)c(c(/C=N/N5CCN(C)CC5)c(OC(C)=O)c4c3C2=O)NC(=O)/C(C)=C\C=C\[C@H](C)[C@H](O)[C@@H](C)[C@@H](O)[C@@H](C)[C@H](OC(C)=O)[C@@H]1C` [Example 7]: in data set [1] (setting [4]), the “pH of the resulting solution” value was 4.5. Moreover, the solubility in data set [1] (setting [5]) is greater than 300 mg/mL. Moreover, the 50% effective dose (ED50) in data set [2] worked out at 1.5 mg/kg.

Regarding `CO[C@H]1/C=C/O[C@@]2(C)Oc3c(C)c(O)c4c(O)c(c(/C=N/N5CCN(C)CC5)c(O)c4c3C2=O)NC(=O)/C(C)=C\C=C\[C@H](C)[C@H](O)[C@@H](C)[C@@H](O)[C@@H](C)[C@H](OC(C)=O)[C@@H]1C` [rifampicin, 3-[[(4-methyl-1-piperazinyl)imino]methyl]rifamycin], the “pH of the resulting solution” value in data set [1] (in either solution (A or B)) is 3.5-3.6. The compound also came in with a solubility in data set [1] (water with 2% ascorbic acid) of less than 50 mg/mL. In data set [3], the “solubility in various aqueous media” value was “lower than 20 mg/ml”.

As usually defined, the solubility is how much of the substance goes into solution per volume. For orientation: ED50 means the midpoint of the dose-response relation.

These data come from patent US4585589A, “Water-soluble alkanoyloxy and alkoxycarbonyloxy rifampicin derivatives, process for its preparation, intermediates, and its pharmaceutical composition as antibacterials” (Gruppo Lepetit S.p.A., priority 1983, dated 1986).
